Reference: patent US5328902A, “7-(substituted)-9-[(substituted glycyl)amido]-6-demethyl-6-deoxytetracyclines” (American Cyanamid Co., priority 1992, dated 1994)

Tests used:
[1] = test system: E. coli UBMS 88-1 Tet B; experiment: microbe, parasite or virus in culture; format: cell-based; details: E. coli UBMS 88-1 Tet B; 18 hours at 35° C.
[2] = test system: E. coli J3272 Tet sens.; experiment: MIC, agar dilution; format: cell-based
[3] = test system: E. coli PRP1 Tet A; experiment: microbe, parasite or virus in culture; format: cell-based; details: E. coli PRP1 Tet A
[4] = test system: E. coli MC 4100 TNIOC Tet B; experiment: microbe, parasite or virus in culture; format: cell-based; details: E. coli MC 4100 TNIOC Tet B
[5] = test system: E. coli J3272 Tet C; experiment: microbe, parasite or virus in culture; format: cell-based; details: E. coli J3272 Tet C
[6] = test system: E. coli UBMS 89-1 Tet M; experiment: microbe, parasite or virus in culture; format: cell-based; details: E. coli UBMS 89-1 Tet M
[7] = test system: E. coli UBMS 89-2 Tet sens.; experiment: MIC, agar dilution; format: cell-based; details: E. coli UBMS 89-2 Tet sens.
[8] = test system: E. coli J2175; experiment: MIC, agar dilution; format: cell-based; details: E. coli J2175
[9] = test system: E. coli BAJ9003 IMP MUT; experiment: microbe, parasite or virus in culture; format: cell-based; details: E. coli BAJ9003 IMP MUT
[10] = test system: E. coli UBMS 90-4 Tet M; experiment: microbe, parasite or virus in culture; format: cell-based; details: E. coli UBMS 90-4 Tet M
[11] = test system: E. coli UBMS 90-5; experiment: MIC, agar dilution; format: cell-based
[12] = test system: E. coli #311 (MP); experiment: MIC, agar dilution; format: cell-based; details: E. coli #311 (MP)
[13] = test system: E. coli ATCC 25922; experiment: MIC, agar dilution; format: cell-based; details: E. coli ATCC 25922
[14] = test system: E. coli J3272 Tet D; experiment: microbe, parasite or virus in culture; format: cell-based; details: E. coli J3272 Tet D
[15] = test system: S. mariescens FPOR 8733; experiment: MIC, agar dilution; format: cell-based
[16] = test system: Ps. acruginosa ATCC 27853; experiment: MIC, agar dilution; format: cell-based; details: Ps. acruginosa ATCC 27853
[17] = test system: S. aureus NEMC 8769; experiment: MIC, agar dilution; format: cell-based; details: S. aureus NEMC 8769
[18] = test system: S. aureus UBMS 88-4; experiment: MIC, agar dilution; format: cell-based; details: S. aureus UBMS 88-4
[19] = test system: S. aureus UBMS 88-5 Tet M; experiment: microbe, parasite or virus in culture; format: cell-based; details: S. aureus UBMS 88-5 Tet M
[20] = test system: S. aureus UBMS 88-7 Tet K; experiment: microbe, parasite or virus in culture; format: cell-based; details: S. aureus UBMS 88-7 Tet K
[21] = test system: S. aureus UBMS 90-1 Tet M; experiment: microbe, parasite or virus in culture; format: cell-based; details: S. aureus UBMS 90-1 Tet M
[22] = test system: S. aureus UBMS 90-3; experiment: MIC, agar dilution; format: cell-based; details: S. aureus UBMS 90-3
[23] = test system: S. aureus IVES 2943; experiment: MIC, agar dilution; format: cell-based; details: S. aureus IVES 2943
[24] = test system: S. aureus ROSE (MP); experiment: MIC, agar dilution; format: cell-based; details: S. aureus ROSE (MP)
[25] = test system: S. aureus IVES 1 983; experiment: MIC, agar dilution; format: cell-based; details: S. aureus IVES 1 983
[26] = test system: S. aureus ATCC 29213; experiment: MIC, agar dilution; format: cell-based; details: S. aureus ATCC 29213
[27] = test system: S. hemolyticus AVHAH 88-3; experiment: MIC, agar dilution; format: cell-based; details: S. hemolyticus AVHAH 88-3
[28] = test system: Enterococcus 12201; experiment: MIC, agar dilution; format: cell-based; details: Enterococcus 12201
[29] = test system: the ribosome; experiment: Reversibility of binding: bacterial growth resumes after washing; format: cell-based; details: bacterial growth resumes when the compound is removed from the cultures by washing
Description: Therefore, the ability of these compounds to inhibit bacterial growth appears to be a direct consequence of its ability to inhibit protein synthesis at the ribosome level.

[30] = test system: tetracycline sensitive and resistant Gram-positive and Gram-negative bacteria; experiment: In vitro antibacterial activity, summary in words of Table I; format: cell-based
[31] = test system: Wild Type S30 (wild type ribosomes, E. coli strain MRE600, tetracycline sensitive); experiment: E. coli in vitro protein translation system, wild type S30; details: for inhibition of protein synthesis occuring on wild type ribosomes: coupled transcription and translation system
[32] = test system: S. aureus UBMS 90-2 Tet M; experiment: microbe, parasite or virus in culture; format: cell-based; details: S. aureus UBMS 90-2 Tet M
[33] = test system: S. aureus SMITH (MP); experiment: MIC, agar dilution; format: cell-based; details: S. aureus SMITH (MP)
[34] = test system: E. faecalis ATCC 29212; experiment: MIC, agar dilution; format: cell-based; details: E. faecalis ATCC 29212

Substance | MIC [2] [µg/mL] | MIC [3] [µg/mL] | MIC [4] [µg/mL] | MIC [5] [µg/mL] | MIC [6] [µg/mL] | MIC [7] [µg/mL] | MIC [8] [µg/mL] | MIC [10] [µg/mL] | MIC [11] [µg/mL] | MIC [12] [µg/mL] | MIC [13] [µg/mL] | MIC [14] [µg/mL] | MIC [15] [µg/mL] | MIC [16] [µg/mL] | MIC [17] [µg/mL] | MIC [18] [µg/mL] | MIC [19] [µg/mL] | MIC [20] [µg/mL] | MIC [21] [µg/mL] | MIC [22] [µg/mL] | other results
[4S-(4alpha,12aalpha)]-4,7-Bis(dimethylamino)-1,4,4a,5,5a,6,11,12a-octahydro-3,10, 12,12a-tetrahydroxy-1,11-dioxo-9-[[(2-propenylamino)acetyl]amino]-2-naphthacenecarboxamide dihydrochloride | 0.5 | 8 | 1 | 1 | 0.5 | 0.5 | 0.5 | 0.5 | 0.5 | 0.5 | 0.5 | 0.25 | 8 | 16 | 0.12 | 0.25 | 0.25 | 8 | 0.5 | 0.25 | MIC [1]: 1 µg/mL; MIC [9]: 0.12 µg/mL; MIC [23]: 8 µg/mL; MIC [24]: 8 µg/mL; MIC [25]: 8 µg/mL; MIC [26]: 0.25 µg/mL; MIC [27]: 0.5 µg/mL; MIC [28]: 0.25 µg/mL; reversibility of binding to the ribosome [29]: bind reversibly; activity against E. coli tetA, E. coli tetC and E. coli tetD [30]: good activity; in vitro activity against tetracycline resistant strains containing tetM and tetB resistance determinants ([30]; S. aureus UBMS 88-5, 90-1, 90-2, E. coli UBMS 89-1, 90-4, 88-1, TN10C tetB): excellent; activity against recently isolated bacteria from clinical sources compared with minocycline ([30]; clinical isolates): superior to that of minocycline; activity against susceptible strains compared with minocycline ([30]; susceptible strains): equallyas effective as minocycline; % Inhibition Wild Type S30 ([31]; Conc. 0.06 mg/ml): 93%; % Inhibition Wild Type S30 ([31]; Conc. 1.0 mg/ml): 99%; inhibition of protein synthesis occuring on wild type ribosomes [31]: effectively inhibit protein synthesis
[4S-(4alpha,12aalpha)]-9-[[[(2,2-Diethoxyethyl)amino]acetyl]amino]-4,7-bis(dimethylamino)-1,4,4a,5,5a,6,11,12a-octahydro-3,10, 12,12a-tetrahydroxy-1,11-dioxo-2-naphthacenecarboxamide dihydrochloride [Compound C] | 8 | > 32 | 8 | 16 | 4 | 8 | 8 | 4 | 8 | 8 | 8 | 4 | > 32 | > 32 | 0.25 | 1 | 1 | 8 | 1 | 0.5 | MIC [1]: 16 µg/mL; MIC [9]: 0.5 µg/mL; MIC [32]: 1 µg/mL; MIC [23]: 8 µg/mL; MIC [24]: 16 µg/mL; MIC [33]: 0.5 µg/mL; MIC [25]: 16 µg/mL; MIC [26]: 1 µg/mL; MIC [27]: 2 µg/mL; MIC [28]: 1 µg/mL; MIC [34]: 0.5 µg/mL; reversibility of binding to the ribosome [29]: bind reversibly; % Inhibition Wild Type S30 ([31]; Conc. 0.06 mg/ml): 88%; % Inhibition Wild Type S30 ([31]; Conc. 1.0 mg/ml): 98%; inhibition of protein synthesis occuring on wild type ribosomes [31]: effectively inhibit protein synthesis
[4S-(4alpha,12aalpha)]-4,7-Bis(dimethylamino-1,4,4a,5,5a,6,11,12a-octahydro-3,10, 12,12a-tetrahydroxy-9-[[[(2-(methoxyethyl)amino]acetyl]amino]-1,11-dioxo-2-naphthacenecarboxamide dihydrochloride | 2 | 8 | 2 | 4 | 2 | 2 | 2 | 2 | 2 | 2 | 2 | 1 | > 32 | > 32 | 0.5 | 0.5 | 1 | 16 | 2 | 0.5 | MIC [1]: 2 µg/mL; MIC [32]: 0.5 µg/mL; MIC [23]: 32 µg/mL; MIC [24]: 32 µg/mL; MIC [33]: 0.5 µg/mL; MIC [25]: 32 µg/mL; MIC [26]: 1 µg/mL; MIC [27]: 2 µg/mL; MIC [28]: 0.5 µg/mL; reversibility of binding to the ribosome [29]: bind reversibly; % Inhibition Wild Type S30 ([31]; Conc. 0.06 mg/ml): 92%; % Inhibition Wild Type S30 ([31]; Conc. 1.0 mg/ml): 98%; inhibition of protein synthesis occuring on wild type ribosomes [31]: effectively inhibit protein synthesis
[4S-(4alpha,12aalpha)]-4,7-Bis(dimethylamino)-1,4,4a,5,5a,6,11,12a-octahydro-3,10, 12,12a-tetrahydroxy-9-[[[(3-methoxypropyl)amino]acetyl]amino]-1,11-dioxo-2-naphthacenecarboxamide dihydrochloride | 1 | 4 | 2 | 1 | 2 | 1 | 1 | 1 | 1 | 1 | 1 | 0.5 | 16 | 32 | 0.25 | 1 | 0.5 | 8 | 2 | 0.5 | MIC [9]: 0.12 µg/mL; MIC [32]: 0.5 µg/mL; MIC [23]: 16 µg/mL; MIC [24]: 16 µg/mL; MIC [33]: 0.5 µg/mL; MIC [25]: 16 µg/mL; MIC [26]: 1 µg/mL; MIC [27]: 2 µg/mL; MIC [28]: 0.5 µg/mL; MIC [34]: 0.25 µg/mL; reversibility of binding to the ribosome [29]: bind reversibly; % Inhibition Wild Type S30 ([31]; Conc. 0.06 mg/ml): 88%; inhibition of protein synthesis occuring on wild type ribosomes [31]: effectively inhibit protein synthesis
